Assay results reported in patent US20230391768A2, “IMIDAZOPYRIDINE DERIVATIVES AND AZA-IMIDAZOPYRIDINE DERIVATIVES AS JANUS KINASE 2 INHIBITORS AND USES THEREOF” (Dana-Farber Cancer Institute, Inc., priority 2018, published 2023).

Assays:
Test in all cases: KINOMEscan
Type in all cases: binding
Details in all cases: read-out: percent of control
[1] = biological target: ABL1(H396P)-nonphosphorylated (Homo sapiens (Human), UniProt P00519, H396P)
Procedure: (§1) In vitro profiling of Compound I-2 (1 μM) was performed using the DiscoveRx KINOMEscan® platform.

BIKE = BIKE (Homo sapiens (Human), UniProt Q9NSY1)
Procedure: as §1

CAMK1 = CAMK1 (Homo sapiens (Human), UniProt Q14012)
Procedure: as §1

CDKL3 = CDKL3 (Homo sapiens (Human), UniProt Q8IVW4)
Procedure: as §1

CLK4 = CLK4 (Homo sapiens (Human), UniProt Q9HAZ1)
Procedure: as §1

CSNK1G3 = CSNK1G3 (Homo sapiens (Human), UniProt Q9Y6M4)
Procedure: as §1

DRAK2 = DRAK2 (Homo sapiens (Human), UniProt O94768)
Procedure: as §1

DYRKIA = DYRKIA (Homo sapiens (Human), UniProt Q13627)
Procedure: as §1

FER = FER (Homo sapiens (Human), UniProt P16591)
Procedure: as §1

FGR = FGR (Homo sapiens (Human), UniProt P09769)
Procedure: as §1

FLT3 = FLT3 (Homo sapiens (Human), UniProt P36888)
Procedure: as §1

GAK = GAK (Homo sapiens (Human), UniProt O14976)
Procedure: as §1

[2] = biological target: JAK1 (JH1domain-catalytic) (Homo sapiens (Human), UniProt P23458)
Procedure: as §1

[3] = biological target: JAK1(JH2domainpseudokinase) (Homo sapiens (Human), UniProt P23458)
Procedure: as §1

KIT = KIT (Homo sapiens (Human), UniProt P10721)
Procedure: as §1

KIT(L576P) = KIT(L576P) (Homo sapiens (Human), UniProt P10721, L576P)
Procedure: as §1

LRRK2 = LRRK2 (Homo sapiens (Human), UniProt Q5S007)
Procedure: as §1

LTK = LTK (Homo sapiens (Human), UniProt P29376)
Procedure: as §1

MAP3K2 = MAP3K2 (Homo sapiens (Human), UniProt Q9Y2U5)
Procedure: as §1

MARK4 = MARK4 (Homo sapiens (Human), UniProt Q96L34)
Procedure: as §1

MELK = MELK (Homo sapiens (Human), UniProt Q14680)
Procedure: as §1

MST1 = MST1 (Homo sapiens (Human), UniProt Q13043)
Procedure: as §1

MTOR = MTOR (Homo sapiens (Human), UniProt P42345)
Procedure: as §1

PIK3C2B = PIK3C2B (Homo sapiens (Human), UniProt O00750)
Procedure: as §1

PRKCE = PRKCE (Homo sapiens (Human), UniProt Q02156)
Procedure: as §1

PRKD3 = PRKD3 (Homo sapiens (Human), UniProt O94806)
Procedure: as §1

PRKX = PRKX (Homo sapiens (Human), UniProt P51817)
Procedure: as §1

RIOK1 = RIOK1 (Homo sapiens (Human), UniProt Q9BRS2)
Procedure: as §1

RIOK2 = RIOK2 (Homo sapiens (Human), UniProt Q9BVS4)
Procedure: as §1

ROCK1 = ROCK1 (Homo sapiens (Human), UniProt Q13464)
Procedure: as §1

[4] = biological target: RPS6KA4 (Kin.Dom.2-C-terminal) (Homo sapiens (Human), UniProt O75676)
Procedure: as §1

[5] = biological target: RSK2 (Kin.Dom.2-C-terminal) (Homo sapiens (Human), UniProt P51812)
Procedure: as §1

[6] = biological target: RSK3 (Kin.Dom.2-C-terminal) (Homo sapiens (Human), UniProt Q15349)
Procedure: as §1

S6K1 = S6K1 (Homo sapiens (Human), UniProt P23443)
Procedure: as §1

TGFBR2 = TGFBR2 (Homo sapiens (Human), UniProt P37173)
Procedure: as §1

TIE1 = TIE1 (Homo sapiens (Human), UniProt P35590)
Procedure: as §1

TLK2 = TLK2 (Homo sapiens (Human), UniProt Q86UE8)
Procedure: as §1

ZAK = ZAK (Homo sapiens (Human), UniProt Q9NYL2)
Procedure: as §1

p38-delta = p38-delta (Homo sapiens (Human), UniProt O15264)
Procedure: as §1

FGR, sequence (P09769 whole entry): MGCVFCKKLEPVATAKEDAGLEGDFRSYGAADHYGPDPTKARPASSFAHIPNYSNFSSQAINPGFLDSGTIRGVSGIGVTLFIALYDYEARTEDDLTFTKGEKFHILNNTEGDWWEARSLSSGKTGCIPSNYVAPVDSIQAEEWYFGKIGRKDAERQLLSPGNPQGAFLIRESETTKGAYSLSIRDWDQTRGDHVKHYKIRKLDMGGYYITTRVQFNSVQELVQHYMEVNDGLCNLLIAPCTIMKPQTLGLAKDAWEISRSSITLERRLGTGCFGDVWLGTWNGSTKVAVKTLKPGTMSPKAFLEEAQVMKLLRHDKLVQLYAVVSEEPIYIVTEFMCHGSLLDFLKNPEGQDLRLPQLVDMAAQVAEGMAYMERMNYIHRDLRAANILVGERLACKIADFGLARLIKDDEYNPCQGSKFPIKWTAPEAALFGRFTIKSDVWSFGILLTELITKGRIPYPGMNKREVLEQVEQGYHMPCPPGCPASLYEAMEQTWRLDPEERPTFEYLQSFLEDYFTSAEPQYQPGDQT
PRKX, sequence (P51817 whole entry): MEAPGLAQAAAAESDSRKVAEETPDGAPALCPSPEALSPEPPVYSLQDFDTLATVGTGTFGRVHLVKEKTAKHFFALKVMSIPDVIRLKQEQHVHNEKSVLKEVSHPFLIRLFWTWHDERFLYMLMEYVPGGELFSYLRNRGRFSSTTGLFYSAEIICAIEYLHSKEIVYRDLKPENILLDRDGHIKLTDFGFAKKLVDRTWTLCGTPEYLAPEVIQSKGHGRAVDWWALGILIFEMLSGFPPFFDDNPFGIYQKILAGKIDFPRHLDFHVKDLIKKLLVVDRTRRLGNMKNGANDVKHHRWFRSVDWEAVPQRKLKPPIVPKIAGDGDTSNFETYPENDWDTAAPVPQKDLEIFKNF
MARK4, sequence (Q96L34 whole entry): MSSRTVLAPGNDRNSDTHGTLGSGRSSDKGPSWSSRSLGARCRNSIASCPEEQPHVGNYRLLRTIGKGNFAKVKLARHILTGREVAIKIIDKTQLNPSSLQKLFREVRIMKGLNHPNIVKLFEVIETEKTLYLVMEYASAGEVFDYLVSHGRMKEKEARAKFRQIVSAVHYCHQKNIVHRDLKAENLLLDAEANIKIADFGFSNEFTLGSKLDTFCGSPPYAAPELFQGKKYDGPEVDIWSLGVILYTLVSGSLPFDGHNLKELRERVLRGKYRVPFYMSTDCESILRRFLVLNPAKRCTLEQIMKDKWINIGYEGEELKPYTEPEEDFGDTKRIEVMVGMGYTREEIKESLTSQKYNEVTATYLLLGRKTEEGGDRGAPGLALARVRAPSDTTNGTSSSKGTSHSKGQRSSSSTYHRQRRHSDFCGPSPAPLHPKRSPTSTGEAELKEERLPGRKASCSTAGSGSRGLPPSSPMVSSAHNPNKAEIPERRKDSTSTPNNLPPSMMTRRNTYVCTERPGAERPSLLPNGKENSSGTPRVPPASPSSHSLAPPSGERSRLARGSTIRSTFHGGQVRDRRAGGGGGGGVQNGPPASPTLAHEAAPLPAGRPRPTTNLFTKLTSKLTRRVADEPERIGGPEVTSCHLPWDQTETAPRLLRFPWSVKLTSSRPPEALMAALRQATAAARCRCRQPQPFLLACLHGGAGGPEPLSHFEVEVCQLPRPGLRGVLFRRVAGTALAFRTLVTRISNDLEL
PIK3C2B, sequence (O00750 whole entry): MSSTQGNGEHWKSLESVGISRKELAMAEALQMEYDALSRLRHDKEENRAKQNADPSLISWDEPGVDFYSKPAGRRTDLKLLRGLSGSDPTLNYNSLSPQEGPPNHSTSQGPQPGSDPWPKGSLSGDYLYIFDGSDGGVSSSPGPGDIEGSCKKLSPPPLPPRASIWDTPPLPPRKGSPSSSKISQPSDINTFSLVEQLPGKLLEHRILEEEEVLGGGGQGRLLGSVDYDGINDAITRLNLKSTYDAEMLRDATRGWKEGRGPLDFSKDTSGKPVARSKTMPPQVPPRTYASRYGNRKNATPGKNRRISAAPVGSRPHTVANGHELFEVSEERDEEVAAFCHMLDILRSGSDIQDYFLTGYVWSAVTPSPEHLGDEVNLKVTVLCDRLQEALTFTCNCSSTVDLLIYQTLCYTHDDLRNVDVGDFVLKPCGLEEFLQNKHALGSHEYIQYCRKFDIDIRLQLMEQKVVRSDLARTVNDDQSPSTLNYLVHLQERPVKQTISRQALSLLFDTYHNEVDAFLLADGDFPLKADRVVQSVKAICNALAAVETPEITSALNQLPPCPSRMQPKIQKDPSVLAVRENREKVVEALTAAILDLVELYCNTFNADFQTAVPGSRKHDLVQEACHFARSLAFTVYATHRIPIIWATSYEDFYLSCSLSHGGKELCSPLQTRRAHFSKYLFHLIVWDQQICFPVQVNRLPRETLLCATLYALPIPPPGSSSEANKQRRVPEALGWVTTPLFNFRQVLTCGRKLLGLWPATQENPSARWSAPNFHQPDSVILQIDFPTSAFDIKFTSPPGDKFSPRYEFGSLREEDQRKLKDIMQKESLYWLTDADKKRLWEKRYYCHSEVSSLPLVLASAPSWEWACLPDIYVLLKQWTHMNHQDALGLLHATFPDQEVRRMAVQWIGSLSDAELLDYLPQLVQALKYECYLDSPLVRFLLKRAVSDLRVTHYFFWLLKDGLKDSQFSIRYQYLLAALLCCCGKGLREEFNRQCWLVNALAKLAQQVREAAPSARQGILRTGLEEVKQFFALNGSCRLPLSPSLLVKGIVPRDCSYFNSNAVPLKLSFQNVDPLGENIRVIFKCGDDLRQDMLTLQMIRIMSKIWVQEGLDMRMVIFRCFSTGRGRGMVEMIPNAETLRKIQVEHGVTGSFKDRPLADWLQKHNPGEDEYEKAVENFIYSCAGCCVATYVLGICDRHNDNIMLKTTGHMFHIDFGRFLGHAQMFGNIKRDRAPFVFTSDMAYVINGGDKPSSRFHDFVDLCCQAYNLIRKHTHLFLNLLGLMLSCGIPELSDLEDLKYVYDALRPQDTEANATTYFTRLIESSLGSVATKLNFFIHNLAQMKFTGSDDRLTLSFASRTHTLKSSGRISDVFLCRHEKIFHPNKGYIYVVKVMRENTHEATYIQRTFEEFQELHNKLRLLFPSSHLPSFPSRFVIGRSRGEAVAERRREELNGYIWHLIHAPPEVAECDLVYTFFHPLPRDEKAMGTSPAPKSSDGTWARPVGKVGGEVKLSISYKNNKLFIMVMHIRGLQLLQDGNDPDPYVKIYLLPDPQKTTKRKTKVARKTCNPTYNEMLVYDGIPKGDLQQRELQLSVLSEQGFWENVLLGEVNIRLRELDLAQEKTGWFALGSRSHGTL
RIOK1, sequence (Q9BRS2 whole entry): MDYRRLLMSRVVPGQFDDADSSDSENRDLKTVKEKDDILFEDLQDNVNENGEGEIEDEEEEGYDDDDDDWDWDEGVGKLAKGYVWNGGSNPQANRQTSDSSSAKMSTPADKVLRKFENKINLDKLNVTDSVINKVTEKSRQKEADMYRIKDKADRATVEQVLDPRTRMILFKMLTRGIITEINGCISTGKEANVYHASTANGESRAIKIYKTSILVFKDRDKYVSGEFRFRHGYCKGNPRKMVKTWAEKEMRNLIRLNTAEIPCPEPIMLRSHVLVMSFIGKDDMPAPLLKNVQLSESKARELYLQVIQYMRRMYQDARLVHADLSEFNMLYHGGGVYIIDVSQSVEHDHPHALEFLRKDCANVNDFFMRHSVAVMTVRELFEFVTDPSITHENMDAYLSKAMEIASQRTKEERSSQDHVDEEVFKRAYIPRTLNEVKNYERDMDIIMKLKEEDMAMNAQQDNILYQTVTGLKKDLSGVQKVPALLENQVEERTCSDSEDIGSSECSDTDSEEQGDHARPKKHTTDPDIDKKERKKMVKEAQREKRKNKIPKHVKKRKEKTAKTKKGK
CLK4, sequence (Q9HAZ1 whole entry): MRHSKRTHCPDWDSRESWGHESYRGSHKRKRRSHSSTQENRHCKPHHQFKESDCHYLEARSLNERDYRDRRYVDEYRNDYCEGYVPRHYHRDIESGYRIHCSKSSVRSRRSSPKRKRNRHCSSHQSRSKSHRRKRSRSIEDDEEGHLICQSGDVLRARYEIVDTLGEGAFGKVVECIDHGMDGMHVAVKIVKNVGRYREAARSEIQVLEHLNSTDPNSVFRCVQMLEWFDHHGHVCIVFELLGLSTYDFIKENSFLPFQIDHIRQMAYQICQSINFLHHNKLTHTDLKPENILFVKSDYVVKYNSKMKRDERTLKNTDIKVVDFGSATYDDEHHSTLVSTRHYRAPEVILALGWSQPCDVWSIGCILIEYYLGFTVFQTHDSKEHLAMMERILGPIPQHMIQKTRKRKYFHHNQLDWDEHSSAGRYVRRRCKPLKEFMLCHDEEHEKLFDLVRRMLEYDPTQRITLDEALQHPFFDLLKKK
MST1, sequence (Q13043 whole entry): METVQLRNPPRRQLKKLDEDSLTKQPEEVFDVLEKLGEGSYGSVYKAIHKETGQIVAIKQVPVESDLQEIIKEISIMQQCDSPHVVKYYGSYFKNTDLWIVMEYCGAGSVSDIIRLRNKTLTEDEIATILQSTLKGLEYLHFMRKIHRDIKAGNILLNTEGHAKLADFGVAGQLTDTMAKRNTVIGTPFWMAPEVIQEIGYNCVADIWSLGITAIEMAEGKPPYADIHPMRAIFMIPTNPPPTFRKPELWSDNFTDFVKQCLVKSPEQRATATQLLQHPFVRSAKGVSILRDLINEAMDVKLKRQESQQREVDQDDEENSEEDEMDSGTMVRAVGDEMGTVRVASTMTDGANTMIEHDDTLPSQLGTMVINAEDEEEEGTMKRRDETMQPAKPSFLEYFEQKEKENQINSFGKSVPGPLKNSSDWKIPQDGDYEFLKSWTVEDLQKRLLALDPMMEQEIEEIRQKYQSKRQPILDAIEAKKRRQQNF

Row | SMILES | remaining binding at 1 µM [1] | remaining binding at 1 µM (BIKE) | remaining binding at 1 µM (CAMK1) | remaining binding at 1 µM (CDKL3) | remaining binding at 1 µM (CLK4) | remaining binding at 1 µM (CSNK1G3) | remaining binding at 1 µM (DRAK2) | remaining binding at 1 µM (DYRKIA) | remaining binding at 1 µM (FER) | remaining binding at 1 µM (FGR) | remaining binding at 1 µM (FLT3) | remaining binding at 1 µM (GAK) | remaining binding at 1 µM [2] | remaining binding at 1 µM [3] | remaining binding at 1 µM (KIT) | remaining binding at 1 µM (KIT(L576P)) | remaining binding at 1 µM (LRRK2) | remaining binding at 1 µM (LTK) | remaining binding at 1 µM (MAP3K2) | remaining binding at 1 µM (MARK4) | further results
1 | CCN1CCN(Cc2cc(NC(=O)c3ccc(C)c(-c4ccc5nc(NC(=O)C6CC6)cn5n4)c3)cc(C(F)(F)F)c2)CC1 [Compound I-2, 3-(2-(cyclopropanecarboxamido)imidazo[1,2-b]pyridazin-6-yl)-N-(3-((4-ethylpiperazin-1-yl)methyl)-5-(trifluoromethyl)phenyl)-4-methylbenzamide] | 0% | 96% | 92% | 0.4% | 11% | 96% | 89% | 92% | 29% | 0.15% | 1% | 99% | 19% | 100% | 0% | 0% | 100% | 3.3% | 28% | 84% | remaining binding at 1 µM (MELK): 95%; remaining binding at 1 µM (MST1): 30%; remaining binding at 1 µM (MTOR): 78%; remaining binding at 1 µM (PIK3C2B): 100%; remaining binding at 1 µM (PRKCE): 86%; remaining binding at 1 µM (PRKD3): 100%; remaining binding at 1 µM (PRKX): 100%; remaining binding at 1 µM (RIOK1): 100%; remaining binding at 1 µM (RIOK2): 100%; remaining binding at 1 µM (ROCK1): 86%; remaining binding at 1 µM [4]: 79%; remaining binding at 1 µM [5]: 78%; remaining binding at 1 µM [6]: 98%; remaining binding at 1 µM (S6K1): 52%; remaining binding at 1 µM (TGFBR2): 90%; remaining binding at 1 µM (TIE1): 0%; remaining binding at 1 µM (TLK2): 100%; remaining binding at 1 µM (ZAK): 2.3%; remaining binding at 1 µM (p38-delta): 41%
2 | CCN1CCN(Cc2cc(NC(=O)c3ccc(C)c(-c4ccc5nc(NC(=O)C6CC6)cn5c4)c3)cc(C(F)(F)F)c2)CC1 [Compound I-6, 3-(2-(cyclopropanecarboxamido)imidazo[1,2-a]pyridin-6-yl)-N-(3-((4-ethylpiperazin-1-yl)methyl)-5-(trifluoromethyl)phenyl)-4-methylbenzamide] | 0% | 100% | 95% | 0% | 28% | 92% | 98% | 100% | 6% | 0% | 2.5% | 93% | 20% | 72% | 0% | 1.8% | 87% | 2% | 78% | 80% | remaining binding at 1 µM (MELK): 100%; remaining binding at 1 µM (MST1): 60%; remaining binding at 1 µM (MTOR): 91%; remaining binding at 1 µM (PIK3C2B): 100%; remaining binding at 1 µM (PRKCE): 83%; remaining binding at 1 µM (PRKD3): 90%; remaining binding at 1 µM (PRKX): 100%; remaining binding at 1 µM (RIOK1): 95%; remaining binding at 1 µM (RIOK2): 94%; remaining binding at 1 µM (ROCK1): 100%; remaining binding at 1 µM [4]: 100%; remaining binding at 1 µM [5]: 100%; remaining binding at 1 µM [6]: 89%; remaining binding at 1 µM (S6K1): 49%; remaining binding at 1 µM (TGFBR2): 86%; remaining binding at 1 µM (TIE1): 4%; remaining binding at 1 µM (TLK2): 98%; remaining binding at 1 µM (ZAK): 6.2%; remaining binding at 1 µM (p38-delta): 32%
